According to patent US9072729B2, “Method for treating fibrosis and cancer with imidazolium and imidazolinium compounds” (Agency for Science, Technology and Research, priority 2008, dated 2015):

Key:
[1] = culture medium for human esophageal cancer cells (Hou et al. 2005); cited from earlier work
[2] = dosage of 30 mg/kg (Lin et al. 2004); cited from earlier work
HLE cells = experiment: ROS determination in HLE cells (dihydroethidium); format: cell-based, human; details: millimolar range, 24 hr
Protocol: FIG. 27. High dose DBZIM induced ROS production in HLE cells. HLE cells were grown in 96-Well plate and treated by DBZIM for 24 hr. The cells were then fixed and stained by DHE for quantification of ROS generation. The images ware acquired and analyzed using ArrayScan VTI HCS reader (Thermal Scientific, PA, USA) and Target Activation BioApplication software.
Oxidative stress was measured using Cellomic HitKit (Thermo Scientific, IL, USA). HLE cells were treated with DBZIM for 24 hr, fixed and labeled by Dihydroethidium probe for quantitation of ROS generation and Hoechst dye for nuclear staining. The result was analyzed by Target Activation BioApplication software. The percentage of positive responding cells was plotted as the indication of ROS amount.

C6 = experiment: Proliferation assay (MTS), glioma C6; format: cell-based; details: Rattus norvegicus, 48 h; C6, determined at day 2
Protocol: FIG. 30. DBZIM inhibited cell proliferation in glioma cell line C6 (A) and U87 MG (C) and induced caspase 3/7 activity in C6 (B) and U87 MG (D). C6 or U87 cells were incubated with DBZIM of various concentrations for 48 hr for proliferation assay and 6 hr for caspase 3/7 activation assay. Proliferation was measured using MTS kit from Promega and expressed as relative cell proliferation with control group was normalized to 1. Caspase 3/7 activity was quantified using a kit from Promega and also expressed as relative caspase 3/7 activity of treated groups over control group.
(§1) Proliferation of Glioma cell lines: U87 MG and C6 under the treatment of DBZIM was examined using 3-(4,5-dimethylthiazol-2-yl)-5-(3-carboxymethoxyphenyl)-2-(4-sulfophenyl)-2H-tetrazolium (MTS) based proliferation assay kit (Promega, Wis., USA). MTS reagent was added to the control and treated cells (after 48 hr) directly and the absorbance signal was read at 490 nm using a Tecan Safire II plate reader.

caspase-3/9 and PARP = experiment: Western blot of caspase-3, caspase-9 and PARP in MCF-7 and AGS; format: cell-based, human; details: 50 μM
Protocol: FIG. 31. DBZIM induces cleavage of caspase-3, caspase-9 and PARP as indication of apoptosis. Western blot analysis for the effect of DBZIM, on the cleavage of caspase-3, Caspase-9 and PARP A) in p53 wild type gastric cancer cell AGS and B) in p53 wild type breast cancer cell line MCF-7. Western blot analysis conducted on cells after 72 h exposure to 50 μM of DBZIM.
To determine whether cells undergo apoptosis, Western blotting was first performed for a caspase-3/9 and PARP activation with proteins from MCF-7 and AGS treated with DBZIM. […] Similarly we observed a DBZIM-induced elevation of caspase 3/7 in C6 (by 3 folds at 2.0 mM) and in U87 MG (by 17 folds at 2 mM) (FIGS. 30B and 30D).

AGS = experiment: Proliferation assay (MTS), gastric cancer cell line; format: cell-based; details: Homo sapiens, 72 h, day 3
Protocol: as §1
(§2) The IC50 value (determined at day 3) was 50 μM for H1299 (lung cancer); 50 μM for MCF-7 (breast cancer), and 40 μM for AGS gastric cancer at day 3 (Table 3).

HepG2 cells = experiment: Annexin V staining and flow cytometry, HepG2; format: cell-based, human; details: HepG2, 24 hr; TRAIL 100 ng/ml
Protocol: FIG. 22. […] HLE or HepG2 cells were incubated with DBZIM of various concentrations for 6 hr, and assayed for caspase 3/7 activity and LDH releasing (expressed as % toxicity). DBZIM induced apoptosis as characterized by annexin V staining using flow cytometer in HLE (E) and HepG2 (F). Scatter plot and histogram gave the representative information on the cell population distribution while bar graphs quantified the percentage of apoptotic cells from the histogram. HLE and HepG2 cells were treated by DBZIM of various concentrations for 24 hr before harvesting for annexin V staining and flow cytometric analysis.
HLE and HepG2 cells were treated with various concentrations of DBZIM or TRAIL (100 ng/ml) for 24 hr, harvested and labeled with Annexin V-FITC (BioVision, CA, USA). The labeled cells were analysed by flow cytometry FACSCalibur ([…], NJ, USA) and CellQuest software. Cells showing green staining in the plasma membrane were considered as apoptotic cells.

phospho-Ser473-Akt = experiment: Western blot of phosphorylated Akt; format: cell-based, human; details: H1299, MCF-7, AGS and MKN28, IC50 concentration, 24 h to 72 h
Source text: FIG. 32. DBZIM inhibits phosphorylation of Akt. […] Time course inhibition of phosphorylated-AKT was shown by Western blot. β-actin was used as an internal loading control.
The Akt (also known as protein kinase B) kinase signaling pathway is activated in a variety of carcinomas of lung, breast, colon, and pancreatic and other tumor types through over-expressing the Akt protein itself and/or increasing phosphorylation of Akt. This study provided evidence that DBZIM is particularly efficacious in inducing apoptosis in AGS, H1299 and MCF-7 cells through a mechanism involving the reduction in the levels of the, phospho-AKT.

survivin in HLE cells = experiment: Survivin translocation assay (HCS); format: cell-based, human; details: 24 hr
Protocol: FIG. 25. DBZIM induced nucleus to cytoplasm translocation of survivin protein. (A) Representative immunocytostaining images of HLE cells treated by DBZIM (0 and 1.0 mM) for 24 hr. Arrows indicate the accumulation and the disappearance of survivin in the nucleus of the control and the DBZIM-treated cells, respectively. The images were acquired and analyzed using ArrayScan VTI HCS reader (Thermal Scientific, PA, USA) and Target Activation BioApplication software. (B) Quantitation of translocation event. Cells were grown in 96-well plate and treated by DBZIM of various concentrations for 24 hr before fixation and immunocytostaining for survivin. Lower value in “Cytoplasmic-Nuclear Difference” indicated a lower amount of cytoplasmic survivin.
HLE cells cultured in 96-well plate were treated with DBZIM for 24 hr before staining and imaging. Cells were then fixed and stained with antibodies against […] and Survivin. (Lab Vision Corp. CA, USA) and buffer reagent from Hitkit (Thermo Scientific, IL, USA). The cells were imaged and analyzed on ArrayScan VTI HCS reader (Thermal Scientific, PA, USA). Fluorescence intensity in the cytoplasmic and nuclear area was plotted for indication of cytoplasm to nucleus translocation.

MCF-7 = experiment: Proliferation assay (MTS), breast cancer cell line; format: cell-based; details: Homo sapiens, MCF7, 72 h; MCF-7 (breast cancer), determined at day 3
Protocol: as §1, §2

IMR90 = experiment: Cytotoxicity on normal (non-cancerous) lung cells; format: cell-based
Protocol: as §2

## (−)-Epigallocatechin gallate [EGCG, reference compound]
[1]
  half life in culture medium: 30 min
[2]
  half life in rat blood: ~72 min

## [Br-].c1ccc(Cn2cc[n+](Cc3ccccc3)c2)cc1 [DBZIM, 1,3-bisbenzylimidazolium bromide]
HLE cells
  ROS generation: generated significant amount of ROS
C6
  IC50: 1000 µM
caspase-3/9 and PARP
  caspase-3/9 and PARP activation: time-dependently increased caspase-3/9 and PARP activity
AGS
  IC50: 40 µM
HepG2 cells
  apoptosis (annexin V staining): dose-dependently induced apoptosis
phospho-Ser473-Akt
  active form of Akt (phospho-Ser473-Akt): appreciable down-regulation
Survivin in HLE cells
  survivin translocation: translocated from the nucleus to the cytoplasm
MCF-7
  IC50: 50 µM
IMR90
  cytotoxicity on normal lung cells: much less cytotoxicity
